Results published in patent US11674967B2, “Method of identifying potential inhibitors of APO TNFα trimers” (UCB BIOPHARMA SRL, priority 2015, dated 2023).

The compounds below were run against T1, human TNFα trimer (Homo sapiens, UniProt P01375) (assay: RMSD of crystal structure of compound-bound TNFα trimer to Reference Structure Compound 34). Conditions: Cα atoms of β-sheet residues, all three subunits, PyMOL.
T1 construct: His6Smt-tag (N, cleaved yes); made in house; host or cells: E. coli (vector pEMB54)
T1 sequence (P01375 with tags, fused parts or gaps): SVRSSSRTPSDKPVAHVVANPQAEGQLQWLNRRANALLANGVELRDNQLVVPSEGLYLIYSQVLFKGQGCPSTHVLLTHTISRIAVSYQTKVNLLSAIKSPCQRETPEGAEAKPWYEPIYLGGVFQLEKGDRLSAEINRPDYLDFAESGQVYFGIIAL
Protocol: Cells were pre-cultured at 37° C. in rich media, induced with the addition of 0.1% arabinose and allowed to express overnight at 25° C. in vector pEMB54. This vector introduces a cleavable N-terminal His6Smt-tag. The cells were lysed and purified by Ni-NTA chelate chromatography. The fusion protein was eluted with buffer containing imidazole and cleaved by the addition of protease. The final cleaved TNFα protein was purified by a subtractive Ni chelate chromatography step to remove the fusion tag and further purified by size exclusion chromatography to remove the remaining impurities. The final TNFα product was typically concentrated to 20.0 mg/ml and flash frozen in liquid nitrogen.
Purified human TNF[…] (20.0 mg/ml, VC 2043) was diluted to 4-7 mg/ml in 10 mM HEPES pH 7.5, 150 mM NaCl buffer followed by overnight incubation at 4° C. with 0.3-0.5 mM compound (1-2 molar excess). The TNF[…] compound complexes were crystallized by sitting drop vapor diffusion by mixing 0.5 μl of complex with 0.5 μl of 21.44% PEG 3350, 100 mM Tris, pH 9.0 (UCB1474433); or 22.0% PEG 3350, 100 mM glycine, 100 mM Tris, pH 8.5 (UCB1480595); or 25.6% PEG 3350, 100 mM Tris, pH 8.3, 3% xylitol (UCB5143079) or other formulation with varying precipitant concentration or additives over 100 μl of the same crystallization solution. Other formulations for other compounds include a range of PEG 3350 of 8-28%. Other PEG-like additives include PEG 1000 (8-18%) or PEG 2000 (10-13%). Other additives include MPD (5-13%) or 200 mM NaCl. Other buffers include 100 mM Hepes (pH 7-8), 100 mM Tris or bis-Tris (pH 6.7-9.0). Other non-PEG 3350 crystallization solutions consist of PEG 2000 (14-19%), 100 mM Hepes, pH 8, 25 mM arginine; or 17% PEG 10000, 200 mM ammonium acetate, 100 mM bis-Tris, pH 5.5; or 30% PEG 2000 MME, 100 mM sodium acetate, 100 mM Mes, pH 6.5.
Crystals were briefly soaked in ethylene glycol and/or vitrified directly in liquid nitrogen for data collection.
X-ray diffraction data were collected from a synchrotron source at a wavelength, most frequently, of 0.976484 Å and recorded on CCD detector. […] The structure of the human TNF[…] (VC 2043) complexed with compound was solved by molecular replacement using Phaser with input model of 1TNF. […] Iterative manual model building using Coot (Emsley and Cowtan, 2004) and Refmac (Murshudov et al., 1997) continued until R and Rfree converged. […] The resolution of the structures was most frequently around 2.15 Å.
Root mean squared deviation (RMSD) calculations were carried out to ascertain the distance of each of the crystal structures of distorted TNFα trimer to a reference structure.
RMSD calculations were done using the program PyMOL (www.pymol.org). In this example version 1.7. was used. The cmd.rms PyMOL command was used with defined pairs of atoms. The atoms used were the backbone Ca's of certain residues within the β-strands of TNFα. The residue numbers used are shown below:
These residue numbers are those within the published structure of TNFα with PDB code 1A8M and within the distorted TNFα trimer structures of this invention. The residue numbers are also according to the sequence of SEQ ID NO:36. The residues in each of the three chains with the TNFα structures, (labelled A, B, and C according to our instructions) were used.
The command cmd.rms was used with the following arguments:
rms=cmd.rms(“(moving)”, “(target)”, matchmaker=4, quiet=0, cycles=0)
where “(moving)” is the selection of atoms in a given TNFα structure and “(target)” is the selection of equivalent atoms within the reference structure.
The RMSD was calculated for each structure against all others. The “representative structure” or “Reference Structure” was chosen to be the one with the lowest sum RMSD to all others—the structure “Compound 34” or “Compound34.pdb”.
Reference Structure (Compound 34) and Query Structure (Compound 64) were overlaid (see FIG. 17 with Reference Structure emboldened) by: • 1. […]

RMSD (Å) with Compound 34 | SMILES
0.23 Å | N#Cc1ccc2nc(Cc3ccc(NC(N)=O)cc3)n(Cc3ccccc3OC(F)F)c2c1 [Compound 30]
0.25 Å | COCCNc1ncc(-c2ccc3nc(C)n(Cc4ccccc4OC(F)F)c3c2)cn1 [Compound 44]
0.29 Å | CS(=O)(=O)c1cccc(OCc2nc3ccc(C#N)cc3n2Cc2cc(Cl)ccc2Cl)c1 [Compound 28]
0.17 Å | COCc1nc2ccc(-c3ccc(N4CCNC(=O)C4)nc3)cc2n1Cc1ccccc1OC(F)F [Compound 38]
0.24 Å | Cc1nc(Cn2c(COc3ccc(C(N)=O)cc3)nc3ccc(-c4ccncn4)cc32)cs1 [Compound 23]
0.16 Å | CS(=O)(=O)c1ccc(Cc2nc3ccc(-c4ccc(S(C)(=O)=O)cc4)cc3n2Cc2ccccc2OC(F)F)cc1 [Compound 62]
0.21 Å | CC(c1ccccc1)n1c(COc2cccc(N3CCCC3=O)c2)nc2ccc(C#N)cc21 (centres unmarked) [Compound 42]
0.16 Å | N#Cc1ccc2nc(COc3cccc(N4CCC(O)C4=O)c3)n(Cc3ccccc3OC(F)F)c2c1 (centres unmarked) [Compound 35]
0.17 Å | N#Cc1ccc2nc(Cn3nnc(N4CCOCC4)n3)n(Cc3ccccc3OC(F)F)c2c1 [Compound 40]
0.22 Å | N#Cc1ccc2nc(COc3cccc(N4CC(O)CC4=O)c3)n(Cc3ccccc3OC(F)F)c2c1 (centres unmarked) [Compound 37]
0.24 Å | N#Cc1ccc2nc(COc3ccc(C(N)=O)nc3)n(Cc3ccccc3OC(F)F)c2c1 [Compound 27]
0.24 Å | N#Cc1ccc2nc(Cc3csc(N4CCNC4=O)n3)n(Cc3ccccc3OC(F)F)c2c1 [Compound 31]
0.23 Å | Cc1nc(Cn2c(COc3ccc(C(N)=O)cc3)nc3ccc(-c4cc[n+]([O-])cc4)cc32)cs1 [Compound 22]
0.24 Å | Cc1nc2ccc(-c3ccc(N4CCNCC4)nc3)cc2n1Cc1ccccc1OC(F)F [Compound 32]
0.14 Å | COCc1nc2ccc(-c3ccc(N4CCN(C(C)=O)CC4)nc3)cc2n1Cc1ccccc1OC(F)F [Compound 33]
0.20 Å | Cc1cc(OCc2nc3ccc(C#N)cc3n2C(C)c2ccccc2)no1 (centres unmarked) [Compound 41]
0.21 Å | N#Cc1ccc2nc(COc3cccc(N4CC(O)CC4=O)c3)n(Cc3ccccc3OC(F)F)c2c1 (centres unmarked) [Compound 36]
0.24 Å | N#Cc1ccc2nc(COc3cccc(N4CCCC4=O)c3)n(Cc3cc(Cl)ccc3Cl)c2c1 [Compound 29]
0.22 Å | NC(=O)c1ccc(OCc2nc3ccc(-c4cc[n+]([O-])cc4)cc3n2Cc2cc(Cl)ccc2Cl)cc1 [Compound 21]
0.23 Å | CC(c1ccccc1OC(F)F)n1c(COc2cccc(N3CCCC3=O)c2)nc2ccc(Br)cc21 (centres unmarked) [Compound 50]

More lines, now with the values behind:

SMILES | RMSD (Å) with Compound 34
Cc1nc2ccc(-c3cnc(N4CCC(C(=O)O)CC4)nc3)cn2c1Cc1ccccc1OC(F)F [Compound 46] | 0.27 Å
Cc1ccc(C)c(Cn2c(COCc3ccccc3[N+](=O)[O-])nc3ccccc32)c1 [Compound 17] | 0.44 Å
Cc1ccc(C)c(Cn2c(C(O)c3ccncc3)nc3ccc(-c4cn[nH]c4)cc32)c1 (centres unmarked) [Compound 12] | 0.27 Å
Cc1nc2ccc(-c3ccc(N4CCNCC4)nc3)cn2c1C(O)c1ccccc1OC(F)F (centres unmarked) [Compound 47] | 0.26 Å
CS(=O)(=O)c1ccc(-c2ccc3nc4n(c3c2)C(c2ccccc2OC(F)F)CC4)cc1 (centres unmarked) [Compound 61] | 0.28 Å
Cc1nc2cc(F)c(-c3cnc(N4CC(O)(C(F)(F)F)C4)nc3)cn2c1[C@@H](O)c1ccccc1OC(F)F [Compound 64, 1-[5-[3-[(S)-[2-(difluoromethoxy)phenyl]-hydroxy-methyl]-7-fluoro-2-methyl-imidazo[1,2-a]pyridin-6-yl]pyrimidin-2-yl]-3-(trifluoromethyl)azetidin-3-ol] | 0.22 Å
Cc1ccc(C)c(Cn2c(CO)nc3ccc(-c4ccc(N(C)C)nc4)cc32)c1 [Compound 14] | 0.30 Å
Cc1ccc(C)c(Cn2c(COCc3ccncc3)nc3ccccc32)c1 [Compound 7] | 0.25 Å
Cc1nc2ccc(-c3cnc(N4CCNC(=O)CC4)nc3)cn2c1C(C)c1ccccc1OC(F)F (centres unmarked) [Compound 57] | 0.30 Å
COc1ccc(-c2ccc3nc4c(n3c2)C(c2ccccc2)OCC4)cn1 (centres unmarked) [Compound 48] | 0.30 Å
Cc1nc2ccc(-c3cnc(N4CCNC(=O)CC4C)nc3)cn2c1Cc1ccccc1OC(F)F (centres unmarked) [Compound 55] | 0.26 Å
Cc1ccc(C)c(C2CCc3nc4ccc(Br)cc4n32)c1 (centres unmarked) [Compound 49] | 0.28 Å
Cc1ccc(C)c(Cn2c(C(O)c3ccncc3)nc3cc(-c4ccc(N5CCNCC5)cc4)ccc32)c1 (centres unmarked) [Compound 11] | 0.30 Å
Cc1ccc(C)c(Cn2c(C(N)c3ccccc3)nc3ccccc32)c1 (centres unmarked) [Compound 10] | 0.25 Å
COC(=O)CCc1ccc2nc(C(O)c3ccncc3)n(Cc3cc(C)ccc3C)c2c1 (centres unmarked) [Compound 13] | 0.36 Å
Cc1ccc(C)c(Cn2c(Cn3cc(-c4cccc(O)c4)nn3)nc3ccccc32)c1 [Compound 6] | 0.21 Å
Clc1ccc(Cl)c(Cn2c(Cc3ccncc3)nc3ccccc32)c1 [Compound 8] | 0.30 Å
Cc1ccc(C)c(Cn2c(Cc3ccncc3)nc3ccc(-c4ccc(CN5CCCC5)cc4)cc32)c1 [Compound 19] | 0.21 Å
Cc1cc2nc(C)c(Cc3ccccc3OC(F)F)n2cc1-c1cnc(NCC2(C(=O)O)CC2)nc1 [Compound 54] | 0.32 Å
COc1ccc(OCc2nc3ccc(Br)cc3n2Cc2nc(C)sc2Cl)cn1 [Compound 25] | 0.34 Å
COc1ccc(-c2ccc3nc(Cc4ccc(S(C)(=O)=O)cc4)n(C(C)c4ccccc4)c3c2)cn1 (centres unmarked) [Compound 45] | 0.24 Å
Cc1ccc(C)c(Cn2c(C(O)c3ccc(N(C)C)cc3)nc3ccccc32)c1 (centres unmarked) [Compound 4] | 0.21 Å
FC(F)Oc1ccccc1C1CCc2nc3ccc(Br)cc3n21 (centres unmarked) [Compound 52] | 0.26 Å
Cc1nc2ccc(-c3cnn(C)c3)cn2c1Cc1cc(Cl)ccc1Cl [Compound 24] | 0.28 Å
CNC(=O)c1ccc(OCc2nc3ccc(-c4ccncc4)cc3n2Cc2cc(Cl)ccc2Cl)cc1 [Compound 20] | 0.22 Å
Cc1ccc(C)c(Cn2c(Cc3ccncc3)nc3ccc(-c4ccncc4)cc32)c1 [Compound 18] | 0.31 Å
Cc1nc2cnc(-c3ccc(=O)[nH]c3)cn2c1Cc1cc(Cl)ccc1Cl [Compound 26] | 0.38 Å
FC(F)Oc1ccccc1C1NCCc2nc3ccc(-c4cnc(N5CCOCC5)nc4)cn3c21 (centres unmarked) [Compound 51] | 0.34 Å
Cc1nc2ccc(-c3cnc(N4CCNC(=O)C4)nc3)cn2c1[C@@H](O)c1ccccc1OC(F)F [Compound 56] | 0.24 Å
CC(c1ccccc1OC(F)F)n1c(COc2cccc(N3CCCC3=O)c2)nc2ccc(Br)cc21 (centres unmarked) [Compound 53] | 0.24 Å
